{"source": "patent US10570129B2", "about": "(Zoetis Services LLC, priority 2015, dated 2020)", "key": {"[1]": {"system": "Haemonchus contortus L3", "assay": "microbe, parasite or virus in culture", "format": "cell-based", "conditions": "Haemonchus contortus, 96 h, read-out: HcL3 Minimal Effective Concentration (MEC)"}, "[2]": {"system": "D. immitis microfilariae", "assay": "Dirofilaria immitis, microfilariae (DiMF) in vitro motility assay", "format": "cell-based", "conditions": "Dirofilaria immitis, 72 h, read-out: DiMF minimally effective dose (MEC)"}}}
{"smiles": "O=C(NCc1ccnc(Cl)c1)n1c2c(c3c(F)cc(C(F)(F)F)cc31)CN(C/C=C/c1ccc(F)cc1)CC2", "note": "[Example 325, (E)-N-((2-chloropyridin-4-yl)methyl)-9-fluoro-2-(3-(4-fluorophenyl)allyl)-7-(trifluoromethyl)-1,2,3,4-tetrahydro-5H-pyrido[4,3-b]indole-5-carboxamide]", "values": [{"measurement": "minimal effective concentration", "setting": "[1]", "result": 3.3, "unit": "µM"}, {"measurement": "minimal effective concentration", "setting": "[2]", "result": 7.6, "unit": "µM"}]}
{"smiles": "N#Cc1ccc(/C=C/CN2CCc3c(c4cc(C#N)ccc4n3C(=O)NCc3ccnc(Cl)c3)C2)cc1", "note": "[Example 91, (E)-N-((2-chloropyridin-4-yl)methyl)-8-cyano-2-(3-(4-cyanophenyl)allyl)-1,2,3,4-tetrahydro-5H-pyrido[4,3-b]indole-5-carboxamide]", "values": [{"measurement": "minimal effective concentration", "setting": "[1]", "result": 0.4, "unit": "µM"}, {"measurement": "minimal effective concentration", "setting": "[2]", "result": 13.5, "unit": "µM"}]}
{"smiles": "O=C(NCc1ccnc(F)c1)n1c2c(c3cc(Cl)ccc31)CN(C/C=C/c1ccc(Cl)cc1F)CC2", "note": "[Example 255, (E)-8-chloro-2-(3-(4-chloro-2-fluorophenyl)allyl)-N-((2-fluoropyridin-4-yl)methyl)-1,2,3,4-tetrahydro-5H-pyrido[4,3-b]indole-5-carboxamide]", "values": [{"measurement": "minimal effective concentration", "setting": "[1]", "result": 0.3, "unit": "µM"}, {"measurement": "minimal effective concentration", "setting": "[2]", "result": 18.2, "unit": "µM"}]}
{"smiles": "Cc1cc2c3c(n(C(=O)NCc4ccnc(Cl)c4)c2cc1C(F)(F)F)CCN(C/C=C/c1ccc(Cl)cc1)C3", "note": "[Example 330, (E)-2-(3-(4-chlorophenyl)allyl)-N-((2-chloropyridin-4-yl)methyl)-8-methyl-7-(trifluoromethyl)-1,2,3,4-tetrahydro-5H-pyrido[4,3-b]indole-5-carboxamide]", "values": [{"measurement": "minimal effective concentration", "setting": "[1]", "result": 0.5, "unit": "µM"}, {"measurement": "minimal effective concentration", "setting": "[2]", "result": "> 100", "unit": "µM"}]}
{"smiles": "Cc1ccc2c3c(n(C(=O)NCc4ccnc(Cl)c4)c2c1)CCN(C/C=C/c1ccc(C(F)(F)F)cc1)C3", "note": "[Example 150, (E)-N-((2-chloropyridin-4-yl)methyl)-7-methyl-2-(3-(4-(trifluoromethyl)-phenyl)allyl)-1,2,3,4-tetrahydro-5H-pyrido[4,3-b]indole-5-carboxamide]", "values": [{"measurement": "minimal effective concentration", "setting": "[1]", "result": 3.3, "unit": "µM"}, {"measurement": "minimal effective concentration", "setting": "[2]", "result": 10, "unit": "µM"}]}
{"smiles": "O=C(NCc1ccnc(Cl)c1)n1c2c(c3cc(OC(F)(F)F)ccc31)CN(C/C=C/c1ccc(F)cc1)CC2", "note": "[Example 393, (E)-N-((2-chloropyridin-4-yl)methyl)-2-(3-(4-fluorophenyl)allyl)-8-(trifluoromethoxy)-1,2,3,4-tetrahydro-5H-pyrido[4,3-b]indole-5-carboxamide]", "values": [{"measurement": "minimal effective concentration", "setting": "[1]", "result": 0.4, "unit": "µM"}, {"measurement": "minimal effective concentration", "setting": "[2]", "result": 1.5, "unit": "µM"}]}
{"smiles": "N#Cc1cccc2c1c1c(n2C(=O)NCc2ccnc(Cl)c2)CCN(C/C=C/c2ccc(F)cc2Cl)C1", "note": "[Example 25, (E)-2-(3-(2-chloro-4-fluorophenyl)allyl)-N-((2-chloropyridin-4-yl)methyl)-9-cyano-1,2,3,4-tetrahydro-5H-pyrido[4,3-b]indole-5-carboxamide]", "values": [{"measurement": "minimal effective concentration", "setting": "[1]", "result": "> 100", "unit": "µM"}, {"measurement": "minimal effective concentration", "setting": "[2]", "result": 33, "unit": "µM"}]}
{"smiles": "N#Cc1ccc2c3c(n(C(=O)NCc4ccnc(C(F)(F)F)c4)c2c1)CCN(C/C=C/c1ccc(Cl)c(F)c1)C3", "note": "[Example 60, (E)-2-(3-(4-chloro-3-fluorophenyl)allyl)-7-cyano-N-((2-(trifluoromethyl)pyridin-4-yl)methyl)-1,2,3,4-tetrahydro-5H-pyrido[4,3-b]indole-5-carboxamide]", "values": [{"measurement": "minimal effective concentration", "setting": "[1]", "result": 4.4, "unit": "µM"}, {"measurement": "minimal effective concentration", "setting": "[2]", "result": 13.5, "unit": "µM"}]}
{"smiles": "NC(=O)c1ccc2c(c1)c1c(n2C(=O)NCc2ccnc(Cl)c2)CCN(C/C=C/c2ccc(Cl)c(F)c2)C1", "note": "[Example 467, (E)-2-(3-(4-chloro-3-fluorophenyl)allyl)-N^5-((2-chloropyridin-4-yl)methyl)-1,2,3,4-tetrahydro-5H-pyrido[4,3-b]indole-5,8-dicarboxamide]", "values": [{"measurement": "minimal effective concentration", "setting": "[1]", "result": "> 100", "unit": "µM"}, {"measurement": "minimal effective concentration", "setting": "[2]", "result": 1, "unit": "µM"}]}
{"smiles": "O=C(NCc1ccnc(Cl)c1)n1c2c(c3cccc(Cl)c31)CN(C/C=C/c1ccc(F)cc1)CC2", "note": "[Example 269, (E)-6-chloro-N-((2-chloropyridin-4-yl)methyl)-2-(3-(4-fluorophenyl)allyl)-1,2,3,4-tetrahydro-5H-pyrido[4,3-b]indole-5-carboxamide]", "values": [{"measurement": "minimal effective concentration", "setting": "[1]", "result": "> 100", "unit": "µM"}, {"measurement": "minimal effective concentration", "setting": "[2]", "result": 3.3, "unit": "µM"}]}
{"smiles": "N#Cc1ccc(/C=C/CN2CCc3c(c4c(C(F)(F)F)cc(F)cc4n3C(=O)NCc3ccnc(Cl)c3)C2)cc1", "note": "[Example 320, (E)-N-((2-chloropyridin-4-yl)methyl)-2-(3-(4-cyanophenyl)allyl)-7-fluoro-9-(trifluoromethyl)-1,2,3,4-tetrahydro-5H-pyrido[4,3-b]indole-5-carboxamide]", "values": [{"measurement": "minimal effective concentration", "setting": "[1]", "result": 3.3, "unit": "µM"}, {"measurement": "minimal effective concentration", "setting": "[2]", "result": 18.2, "unit": "µM"}]}
{"smiles": "O=C(NCc1cnc(Cl)s1)n1c2c(c3c(Cl)c(Cl)ccc31)CN(C/C=C/c1ccc(Cl)cc1)CC2", "note": "[Example 295, (E)-8,9-dichloro-2-(3-(4-chlorophenyl)allyl)-N-((2-chlorothiazol-5-yl)methyl)-1,2,3,4-tetrahydro-5H-pyrido[4,3-b]indole-5-carboxamide]", "values": [{"measurement": "minimal effective concentration", "setting": "[1]", "result": "> 100", "unit": "µM"}, {"measurement": "minimal effective concentration", "setting": "[2]", "result": 18.2, "unit": "µM"}]}
{"smiles": "O=C(NCc1ccnc(Cl)c1)n1c2c(c3ccc(C(F)(F)F)cc31)CN(C/C=C/c1ccc(Cl)c(Cl)c1)CC2", "note": "[Example 158, (E)-N-((2-chloropyridin-4-yl)methyl)-2-(3-(3,4-dichlorophenyl)allyl)-7-(trifluoromethyl)-1,2,3,4-tetrahydro-5H-pyrido[4,3-b]indole-5-carboxamide]", "values": [{"measurement": "minimal effective concentration", "setting": "[1]", "result": 2.2, "unit": "µM"}, {"measurement": "minimal effective concentration", "setting": "[2]", "result": 16.8, "unit": "µM"}]}
{"smiles": "N#Cc1ccc(/C=C/CN2CCc3c(c4c(Cl)c(F)ccc4n3C(=O)NCc3ccnc(Cl)c3)C2)cc1", "note": "[Example 303, (E)-9-chloro-N-((2-chloropyridin-4-yl)methyl)-2-(3-(4-cyanophenyl)allyl)-8-fluoro-1,2,3,4-tetrahydro-5H-pyrido[4,3-b]indole-5-carboxamide]", "values": [{"measurement": "minimal effective concentration", "setting": "[1]", "result": 1, "unit": "µM"}, {"measurement": "minimal effective concentration", "setting": "[2]", "result": 57.4, "unit": "µM"}]}
{"smiles": "O=C(NCc1ccnc(F)c1)n1c2c(c3ccc(Cl)cc31)CN(C/C=C/c1ccc(F)cc1F)CC2", "note": "[Example 226, (E)-7-chloro-2-(3-(2,4-difluorophenyl)allyl)-N-((2-fluoropyridin-4-yl)methyl)-1,2,3,4-tetrahydro-5H-pyrido[4,3-b]indole-5-carboxamide]", "values": [{"measurement": "minimal effective concentration", "setting": "[1]", "result": "> 100", "unit": "µM"}, {"measurement": "minimal effective concentration", "setting": "[2]", "result": 1.8, "unit": "µM"}]}
{"smiles": "N#Cc1ccc2c(c1)c1c(n2C(=O)NCc2ccnc(Cl)c2)CCN(C/C=C/c2ccc(Br)c(F)c2F)C1", "note": "[Example 81, (E)-2-(3-(4-bromo-2,3-difluorophenyl)allyl)-N-((2-chloropyridin-4-yl)methyl)-8-cyano-1,2,3,4-tetrahydro-5H-pyrido[4,3-b]indole-5-carboxamide]", "values": [{"measurement": "minimal effective concentration", "setting": "[1]", "result": 0.2, "unit": "µM"}, {"measurement": "minimal effective concentration", "setting": "[2]", "result": "> 100", "unit": "µM"}]}
{"smiles": "N#Cc1ccc(/C=C/CN2CCc3c(c4ccc(OC(F)(F)F)cc4n3C(=O)NCc3ccnc(Cl)c3)C2)cc1", "note": "[Example 351, (E)-N-((2-chloropyridin-4-yl)methyl)-2-(3-(4-cyanophenyl)allyl)-7-(trifluoromethoxy)-1,2,3,4-tetrahydro-5H-pyrido[4,3-b]indole-5-carboxamide]", "values": [{"measurement": "minimal effective concentration", "setting": "[1]", "result": 0.7, "unit": "µM"}, {"measurement": "minimal effective concentration", "setting": "[2]", "result": 32.3, "unit": "µM"}]}
{"smiles": "O=C(NCc1ccnc(Cl)c1)n1c2c(c3cc(C(F)(F)F)ccc31)CN(C/C=C/c1ccc(Cl)c(F)c1)CC2", "note": "[Example 410, (E)-2-(3-(4-chloro-3-fluorophenyl)allyl)-N-((2-chloropyridin-4-yl)methyl)-8-(trifluoromethyl)-1,2,3,4-tetrahydro-5H-pyrido[4,3-b]indole-5-carboxamide]", "values": [{"measurement": "minimal effective concentration", "setting": "[1]", "result": 1.8, "unit": "µM"}, {"measurement": "minimal effective concentration", "setting": "[2]", "result": 10, "unit": "µM"}]}
